Peptide text beside a SMILES is read from it. * marks the point of attachment. DOTA = O=C(O)CN1CCN(CC(=O)O)CCN(CC(=O)*)CCN(CC(=O)O)CC1
What was measured:
MDA-MB-435 cells [1] = conditions: ref Previous work (reference number not given); cited from earlier work
[2] = tested on: MDA-MB-435 human breast cancer xenograft; type: in vivo, SCID mice; conditions: 2 h post-injection, intravenous
Experimental: Four- to 6-week-old Severe Combined Immunodeficient (SCID) out bred mice (Taconic, Germantown, NY) was maintained in approved pathogen-free institutional housing. Animal studies were conducted as outlined in the NIH Guidelines for the Care and Use of Laboratory Animals and the Policy and Procedures for Animal Research of the Harry S. Truman Veterans Memorial Hospital. MDA-MB-435 human breast cancer xenografts (5×10^6) were established by subcutaneous injection into the flank of SCID mice. Mice were utilized when visual tumors (~1–3mm^3) formed after approximately 5 weeks. Radiolabeled, purified ^111In-DOTA-GSG-EGFL6 was diluted to 11.1 MBq in 100 µL of sterile PBS. The peptide was injected intravenously in a mouse bearing an MDA-MB-435 human breast cancer xenograft. Following injection, radiolabeled peptide was permitted to circulate for 2h, followed by euthanization by carbon dioxide. The treated mouse was imaged at the Harry S. Truman Veterans Memorial Hospital Biomolecular Imaging Center. Overnight (7h) image acquisition was performed with a Siemens Inveon Micro-SPECT/CT (Siemens, Knoxville, TN) equipped with mouse whole body 1.0 mm collimators. Data were processed with Inveon Research Workplace processing software and fan beam (Feldkamp) filtered back projection algorithms were used for reconstruction of the CT tomographic image.

in vivo = experiment: in vivo; parameters: species or system SCID mice; conditions: SCID (outbred, Taconic), mouse, iv, total radioactivity
Experimental: Four- to 6-week-old Severe Combined Immunodeficient (SCID) out bred mice (Taconic, Germantown, NY) was maintained in approved pathogen-free institutional housing. Animal studies were conducted as outlined in the NIH Guidelines for the Care and Use of Laboratory Animals and the Policy and Procedures for Animal Research of the Harry S. Truman Veterans Memorial Hospital. MDA-MB-435 human breast cancer xenografts (5×10^6) were established by subcutaneous injection into the flank of SCID mice. Mice were utilized when visual tumors (~1–3mm^3) formed after approximately 5 weeks.
DOTA-EGFL6 peptide was radiolabeled with ^111In and purified peptide was prepared at 1.85 MBq/mL in sterile PBS. Three mice bearing MDA-MB-435 tumors were intravenously injected with ^111In-DOTA-EGFL6 and sacrificed at 2 h. Organs and tissues pertinent to tumor uptake and clearance were excised, weighed, and counted by gamma counter. Percentage of injected dose per gram (%ID/g) of tissue was reported to normalize uptake by tissue mass.

MDA-MB-468 cells [3] = experiment: 111In-DOTA-EGFL6 cell binding; type: cell-based, human; conditions: 37°C, 1 h, gamma counter, mean ± SD of 4 samples
Experimental: (§1) DOTA-EGFL6 was diluted to 1 mg/mL in water and incubated with 0.1 M ammonium acetate (pH 5) and 18.5 MBq of ^111In at 80°C for 1 h. Reactions were quenched by addition of 10 µM EDTA. Radiolabeled peptide was purified by reverse phase HPLC using a linear gradient of acetonitrile plus 0.1% trifluoroacetic acid from 5–95% over 35 minutes. Acetonitrile was evaporated by nitrogen gas flow, and peptide was d iluted to appropriate concentration using sterile PBS.
(§2) MDA-MB-435, MDA-MB-468, SK-BR-3 and HEK-293 cells were diluted to 2×10^6 cells/mL in Dulbelco’s Modified Eagle Medium (DMEM) with 0.1 mg/mL BSA. ^111In-DOTA-EGFL6 was diluted to 1×10^7 CPM/mL in DMEM plus 0.1% BSA and 100 µL of peptide was added to 200 µL of cells and incubated at 37°C for 1 h. Cells were washed three times with ice-cold PBS with 1% BSA and counted via gamma counter.

HEK-293 cells [4] = experiment: 111In-DOTA-EGFL6 cell binding; type: cell-based, human; conditions: 37°C, 1 h, gamma counter, mean ± SD of 4 samples
Experimental: as §1, §2

MDA-MB-435 cells [5] = experiment: 111In-DOTA-EGFL6 cell binding; type: cell-based, human; conditions: 37°C, 1 h, gamma counter, mean ± SD of 4 samples
Experimental: as §1, §2

SK-BR-3 cells [6] = experiment: 111In-DOTA-EGFL6 cell binding; type: cell-based, human; conditions: 37°C, 1 h, gamma counter, mean ± SD of 4 samples
Experimental: as §1, §2

MDA-MB-468 cells [7] = experiment: Biotinylated peptide fluorescent microscopy; type: cell-based, human; conditions: fixed MDA-MB-468 cells, 10 µM biotinylated peptide in PBS, 1 h room temperature, Neutravidin Texas Red detection
Experimental: (§3) All cell lines were grown to 80% confluency and fixed with 4% paraformaldehyde. Cells were dried onto microscope slides overnight followed by rehydration with PBS. Slides were blocked with 5% BSA in PBS for 2 h at room temperature. Biotinylated EGFL6 peptide was diluted to 10 µM in PBS and 100 µL was added to each cell sample for incubation at room temperature for 1 h. Slides were washed 3 times with 0.1% TBST and cells were incubated with Neutravidin Texas Red (Life Technologies, Rockville, MD) diluted to 5 µg/mL in 0.1% TBST for 1 h at room temperature. Washing was performed in the same manner and cells were visualized by an epifluorescent Nikon T1-SM inverted microscope (Nikon, Melville, NY).

HEK-293 cells [8] = experiment: Biotinylated peptide fluorescent microscopy; type: cell-based, human; conditions: fixed HEK-293 cells, 10 µM biotinylated peptide in PBS, 1 h room temperature, Neutravidin Texas Red detection
Experimental: as §3

MDA-MB-435 cells [9] = experiment: Biotinylated peptide fluorescent microscopy; type: cell-based, human; conditions: fixed MDA-MB-435 cells, 10 µM biotinylated peptide in PBS, 1 h room temperature, Neutravidin Texas Red detection
Experimental: as §3

SK-BR-3 cells [10] = experiment: Biotinylated peptide fluorescent microscopy; type: cell-based, human; conditions: fixed SK-BR-3 cells, 10 µM biotinylated peptide in PBS, 1 h room temperature, Neutravidin Texas Red detection
Experimental: as §3

GTKSKCCYSLRRSS [3-G03, phage selected peptide with 64% homology to EGFL6]
Binding to MDA-MB-435 cells in vitro (MDA-MB-435 cells [1]): bound to MDA-MB-435 cells

C[C@H](NC(=O)[C@H](Cc1c[nH]c2ccccc12)NC(=O)[C@H](CCCCN)NC(=O)[C@@H](NC(=O)CNC(=O)CNC(=O)[C@H](CO)NC(=O)CNC(=O)CN1CCN(CC(=O)O)CCN(CC(=O)O)CCN(CC(=O)O)CC1)[C@@H](C)O)C(=O)N[C@@H](CS)C(=O)N[C@@H](CS)C(=O)N[C@@H](Cc1ccc(O)cc1)C(=O)NCC(=O)N[C@@H](Cc1c[nH]c2ccccc12)C(=O)N[C@@H](CCCNC(=N)N)C(=O)N[C@@H](CC(N)=O)C(=O)N[C@@H](CO)C(=O)N[C@@H](CO)C(=O)O [^111In-DOTA-EGFL6, metal not drawn] ({DOTA}-GSGGTKWACCYGWRNSS-OH; N-terminus and C-terminus assumed)
Radiolabel at interface between xenograft and muscle (vasculature-like binding) in SPECT/CT image [2]: strikingly high concentration of radiolabel | Tumor uptake in SPECT/CT image ([2]; 11.1 MBq, one mouse): low tumor uptake | tissue uptake at 2 h (in vivo; Blood retention): 1.3 ± 0.51 %ID/g | tissue uptake at 2 h (in vivo; Kidney retention): 28.6 ± 4.24 %ID/g | tissue uptake at 2 h (in vivo; Non-target organ accumulation, all organs measured except the kidneys): < 1 %ID/g | tissue to tissue ratio at 2 h (in vivo; Tumor to blood ratio): 0.27 | tissue to tissue ratio at 2 h (in vivo; Tumor to muscle ratio): 2.7 | tissue uptake at 2 h (in vivo; Tumor uptake): 0.36 ± 0.08 %ID/g | Peptide binding, % of total peptide added (MDA-MB-468 cells [3]): 10.5% ± 2.7 | Peptide binding, % of total peptide added (HEK-293 cells [4]): 5.4 ± 0.5% | Peptide binding, % of total peptide added (MDA-MB-435 cells [5]): 12.3 ± 1.0% | Peptide binding, % of total peptide added (SK-BR-3 cells [6]): 4.7 ± 0.2%

GTKWACCYGWRNSS [Biotinylated EGFL6 peptide, EGFL6 peptide with N-terminal GSG spacer conjugated at the N-terminus with biotin]
Peptide binding by fluorescent microscopy (MDA-MB-468 cells [7]): bound strongly | Peptide binding by fluorescent microscopy (HEK-293 cells [8]): no binding | Peptide binding by fluorescent microscopy (MDA-MB-435 cells [9]): bound strongly

GTKWACCYGWRNSS [EGFL6 peptide]
Peptide binding by fluorescent microscopy (SK-BR-3 cells [10]): undetectable
